The values below come from patent US10336701B2, “Pyridin-2-one derivatives of formula (II) useful as EP3 receptor antagonists” (Janssen Pharmaceutica NV, priority 2017, dated 2019).

Assay [1] deals with T1, EP3 receptor (Homo sapiens, UniProt P43115).
T1 construct: purchased Millipore HTS092M
T1 sequence (P43115 1-390): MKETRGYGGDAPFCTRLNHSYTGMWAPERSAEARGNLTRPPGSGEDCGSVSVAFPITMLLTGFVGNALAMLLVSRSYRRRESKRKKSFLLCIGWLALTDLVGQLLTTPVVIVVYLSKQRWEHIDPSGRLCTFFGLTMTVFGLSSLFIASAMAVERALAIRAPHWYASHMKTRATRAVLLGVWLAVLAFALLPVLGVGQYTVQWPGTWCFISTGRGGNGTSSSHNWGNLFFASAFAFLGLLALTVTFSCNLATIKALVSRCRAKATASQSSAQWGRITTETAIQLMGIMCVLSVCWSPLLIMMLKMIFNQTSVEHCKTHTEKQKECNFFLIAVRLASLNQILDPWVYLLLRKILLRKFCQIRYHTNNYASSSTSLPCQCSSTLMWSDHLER
Briefly: [3H]-PGE2 binding assay (EP3 competition binding). To be noted: read-out: [3H]-PGE2 Binding Ki. The method in brief: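 Scintillation-bead competition binding with EP3 membranes (2 μg/well), 2 nM [3H]-PGE2, 0.1% DMSO, in 50 mM Tris, 10 mM MgCl2, 1 mM EDTA, pH 7.4.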

Assay [2] concerns the target T1, EP3 receptor. The experiment in a line: CHO cell cAMP assay (forskolin and sulprostone stimulated, HTRF). The format is cell-based. To be noted: CHO cells; sulprostone 700 nM (EC80) and FSK 2 μM (EC70), 37° C. for 30 minutes; read-out: CHO_cAMP IC50. (Cyclic AMP is a second messenger, typically raised through Gs and lowered through Gi signalling.)

By Ki is commonly meant the dissociation constant of the complex between target and ligand, obtained from inhibition or displacement. As usually defined, the IC50 is the concentration that gives 50% inhibition. As to `CCn1ncc2c(F)cc(-c3[nH]c(=O)c(C(/C=C4\OC(=O)NC4=O)C(C)C)cc3C)cc21` (stereo not drawn) [compound 111, (Z)-5-(2-(6-(1-ethyl-4-fluoro-1H-indazol-6-yl)-5-methyl-2-oxo-1,2-dihydropyridin-3-yl)-3-methylbutylidene)oxazolidine-2,4-dione], the inhibitory constant (Ki) on EP3 receptor [1] turned out to be 0.162 µM. For the same compound, on EP3 receptor [2], the concentration for half-maximal inhibition (IC50) amounted to 0.585 µM.
On the same counts, the results for `CCn1ncc2c(Cl)cc(-c3ccc(C(/C=C4\OC(=O)NC4=O)C(C)C)c(=O)[nH]3)cc21` (stereo not drawn) [compound 116, (Z)-5-(2-(6-(4-chloro-1-ethyl-1H-indazol-6-yl)-2-oxo-1,2-dihydropyridin-3-yl)-3-methylbutylidene)oxazolidine-2,4-dione] are 0.008 µM and 0.076 µM.
On the same counts, the results for `CC(C)C(/C=C1\OC(=O)NC1=O)c1ccc(-c2ccc3c(ccn3C)c2)[nH]c1=O` (stereo not drawn) [compound 118, (Z)-5-(3-methyl-2-(6-(1-methyl-1H-indol-5-yl)-2-oxo-1,2-dihydropyridin-3-yl)butylidene)oxazolidine-2,4-dione] are 0.044 µM and 0.131 µM.
For `CCn1cc2ccc(-c3ccc(C(CC4OC(=O)NC4=O)C(C)C)c(=O)[nH]3)cc2n1` (stereo not drawn) [compound 120, 5-(2-(6-(2-ethyl-2H-indazol-6-yl)-2-oxo-1,2-dihydropyridin-3-yl)-3-methylbutyl)oxazolidine-2,4-dione] the same measures were greater than 10 µM and greater than 20 µM.
`CC(C)C(/C=C1\OC(=O)NC1=O)c1ccc(-c2cc(F)c3cnn(C(C)C)c3c2)[nH]c1=O` (stereo not drawn) [compound 122, (Z)-5-(2-(6-(4-fluoro-1-isopropyl-1H-indazol-6-yl)-2-oxo-1,2-dihydropyridin-3-yl)-3-methylbutylidene)oxazolidine-2,4-dione]: the inhibitory constant (Ki) at EP3 receptor [1] came to 0.032 µM. In addition, the IC50 at EP3 receptor [2] is 0.278 µM.
Turning to `CC(C)C(/C=C1\OC(=O)NC1=O)c1ccc(-c2cc(F)c3cnn(C4CCCC4)c3c2)[nH]c1=O` (stereo not drawn) [compound 124, (Z)-5-(2-(6-(1-cyclopentyl-4-fluoro-1H-indazol-6-yl)-2-oxo-1,2-dihydropyridin-3-yl)-3-methylbutylidene)oxazolidine-2,4-dione], the inhibition constant Ki on EP3 receptor [1] came out at 0.202 µM. Further, the IC50 at EP3 receptor [2] was 19.2 µM.
On the same counts, the results for `CCn1ncc2c(C)cc(-c3ccc(C(CC4OC(=O)NC4=O)C(C)C)c(=O)[nH]3)cc21` (stereo not drawn) [compound 126, 5-(2-(6-(1-ethyl-4-methyl-1H-indazol-6-yl)-2-oxo-1,2-dihydropyridin-3-yl)-3-methylbutyl)oxazolidine-2,4-dione] are 0.065 µM and 0.382 µM.
On the same counts, the results for `O=C1NC(=O)/C(=C/C(c2ccc(-c3ccc4cccc(F)c4c3)[nH]c2=O)C2CCCCC2)O1` (stereo not drawn) [compound 134, (Z)-5-(2-cyclohexyl-2-(6-(8-fluoronaphthalen-2-yl)-2-oxo-1,2-dihydropyridin-3-yl)ethylidene)oxazolidine-2,4-dione] are 0.004 µM and 0.008 µM.
On the same counts, the results for `CC(C)C(/C=C1\OC(=O)NC1=O)c1ccc(-c2ccc3cccc(C(F)(F)F)c3c2)[nH]c1=O` (stereo not drawn) [compound 143, 5-(3-methyl-2-(2-oxo-6-(8-(trifluoromethyl)naphthalen-2-yl)-1,2-dihydropyridin-3-yl)butylidene)oxazolidine-2,4-dione] are 0.308 µM and 0.734 µM.
With `CC1(c2ccc(-c3ccc4ccccc4c3)[nH]c2=O)C(=O)Nc2nncn21` (stereo not drawn) [compound 152, 3-[5-methyl-6-oxo-5H, 6H, 7H-imidazo[2,1-c][1,2,4]triazol-5-yl]-6-(naphthalen-2-yl)-1,2-dihydropyridin-2-one], the Ki on EP3 receptor [1] worked out at 0.428 µM. Further, the IC50 at EP3 receptor [2] came to 2.14 µM.
On the same counts, the results for `CC1(c2ccc(-c3ccc4ccccc4c3)[nH]c2=O)C(=O)Nc2nccn21` (stereo not drawn) [compound 153, 3-methyl-3-(6-(naphthalen-2-yl)-2-oxo-1,2-dihydropyridin-3-yl)-1H-imidazo[1,2-a]imidazol-2(3H)-one] are 0.043 µM and 0.4 µM.
With `CC(C)C1(c2ccc(-c3ccc4cccc(F)c4c3)[nH]c2=O)C(=O)Nc2nccn21` (stereo not drawn) [compound 155, 3-(6-(8-fluoronaphthalen-2-yl)-2-oxo-1,2-dihydropyridin-3-yl)-3-isopropyl-1H-imidazo[1,2-a]imidazol-2(3H)-one], the inhibition constant Ki at EP3 receptor [1] came out at 0.005 µM. On EP3 receptor [2], the IC50 was found to be 0.02 µM.
As for `CC(C)C(c1ccc(-c2ccc3cccc(F)c3c2)[nH]c1=O)n1cnnc1N` (stereo not drawn) [compound 160, 3-(1-(3-amino-4H-1,2,4-triazol-4-yl)-2-methylpropyl)-6-(8-fluoronaphthalen-2-yl)pyridin-2(1H)-one], the inhibition constant (Ki) at EP3 receptor [1] stood at 0.013 µM. The IC50 on EP3 receptor [2] came to 0.044 µM.
Turning to `CC(C)C(c1ccc(-c2ccc3cccc(F)c3c2)[nH]c1=O)n1cnc(N)n1` (stereo not drawn) [compound 161, 3-(1-(3-amino-1H-1,2,4-triazol-1-yl)-2-methylpropyl)-6-(8-fluoronaphthalen-2-yl)pyridin-2(1H)-one], the Ki on EP3 receptor [1] was 0.027 µM. Also, the 50% inhibitory concentration (IC50) at EP3 receptor [2] turned out to be 0.095 µM.
With `CC1(c2ccc(-c3ccc4ccccc4c3)[nH]c2=O)Cn2cnnc2N1` (stereo not drawn) [compound 167, 3-[6-methyl-5H,6H,7H-imidazo[2,1-c][1,2,4]triazol-6-yl]-6-(naphthalen-2-yl)-1,2-dihydropyridin-2-one], the Ki at EP3 receptor [1] is 0.151 µM. Further, the IC50 on EP3 receptor [2] was 0.779 µM.
On the same counts, the results for `CC(C)C(F)(C(=O)NS(=O)(=O)c1cc(F)cc(F)c1)c1ccc(-c2ccc3cccc(F)c3c2)[nH]c1=O` (stereo not drawn) [compound 173, N-((3,5-difluorophenyl)sulfonyl)-2-fluoro-2-(6-(8-fluoronaphthalen-2-yl)-2-oxo-1,2-dihydropyridin-3-yl)-3-methylbutanamide] are 0.153 µM and 1.3 µM.
For `CC(C)C(C(=O)NS(=O)(=O)c1cc(Cl)c(Cl)s1)c1ccc(-c2ccc3cccc(F)c3c2)[nH]c1=O` (stereo not drawn) [compound 175, N-(4,5-dichlorothiophen-2-ylsulfonyl)-2-(6-(8-fluoronaphthalen-2-yl)-2-oxo-1,2-dihydropyridin-3-yl)-3-methylbutanamide] the same measures were 0.11 µM and 0.171 µM.
For `CC(C)C(C(=O)NC1CCNC1)c1ccc(-c2ccc3cccc(F)c3c2)[nH]c1=O` (stereo not drawn) [compound 178, 2-(6-(8-fluoronaphthalen-2-yl)-2-oxo-1,2-dihydropyridin-3-yl)-3-methyl-N-(pyrrolidin-3-yl)butanamide] the same measures were 0.02 µM and 0.22 µM.
On to `CC(C)C(C(=O)NC1CN(C)C1)c1ccc(-c2ccc3cccc(F)c3c2)[nH]c1=O` (stereo not drawn) [compound 182, 2-(6-(8-fluoronaphthalen-2-yl)-2-oxo-1,2-dihydropyridin-3-yl)-3-methyl-N-(1-methylazetidin-3-yl)butanamide], for which the Ki at EP3 receptor [1] stood at 0.041 µM. Besides, the concentration for half-maximal inhibition (IC50) at EP3 receptor [2] was 0.638 µM.
For `CC(C)C(C(=O)NC1CCSCC1)c1ccc(-c2ccc3cccc(F)c3c2)[nH]c1=O` (stereo not drawn) [compound 183, 2-(6-(8-fluoronaphthalen-2-yl)-2-oxo-1,2-dihydropyridin-3-yl)-3-methyl-N-(tetrahydro-2H-thiopyran-4-yl)butanamide] the same measures were 0.003 µM and 0.001 µM.
For `N#CC1(OC(N)=O)CCCC(c2ccc(-c3ccc4ccccc4c3)[nH]c2=O)C1` (stereo not drawn) [compound 185, 1-cyano-3-(6-(naphthalen-2-yl)-2-oxo-1,2-dihydropyridin-3-yl)cyclohexyl carbamate] the same measures were 0.031 µM and 0.314 µM.
